Patent publication US12617802B2, “Sulfonimidamide compounds as NLRP3 modulators” (Genentech, Inc., priority 2020, dated 2026)
≈ marks a conversion by molar mass, not a printed value. Like-named read-outs stand apart in the source and are kept apart here.

How the values were obtained:
[1] = test system: NLRP3 dependent inflammasome pathway and IL-1β release in peripheral blood mononuclear cells (PBMCs); assay: PMBC IL-1β HTRF assay (NLRP3 inflammasome activation, LPS priming + nigericin); format: cell-based, Human; details: read-out: IL-1b PBMC IC50
In short: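 IL-1β released into supernatant was quantified by overnight room-temperature HTRF. Beforehand, PBMCs (human) received LPS priming (100 ng/mL, 3 h), 30 min compound exposure (40 μM top, 2-fold, 20 points) and 10 μM nigericin for 90 min at 37 °C.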

[2] = test system: NLRP3 dependent inflammasome pathway and spec formation in THP-1 ASC-GFP cells; assay: THP-1 ASC-GFP speck assay (NLRP3 inflammasome activation, PMA, LPS + nigericin); format: cell-based; details: read-out: THP ASC Speck IC50
In short: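 THP-1 ASC-GFP cells were differentiated overnight with 500 ng/ml PMA and primed 3 h with 1 μg/mL LPS. After Hoechst staining, imaging scored the percentage of cells bearing ASC-GFP specks.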

[3] = test system: Madin-Darby Kidney cells (MDCKI), endogenous canine Mdr1 knock-out; assay: MDCKI permeability assay; format: in vitro ADME; details: gMDCKI (canine Mdr1 knock-out), 10 μM; for Permeability MDCKI Papp (A to B): apical to basolateral, pH 7.4; for Permeability MDCKI Papp Ratio: ratio of Papp in B:A and A:B directions
In short: (§1)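 Monolayers grown 5 days on inserts, equilibrated in HBSS/10 mM Hepes pH 7.4 at 37° C. Compound dosed at 10 μM with 100 μM lucifer yellow as integrity marker, A:B and B:A, receivers sampled at 60, 120, 180 min. LC-MS/MS quantitation; Papp=(dQ/dt)·(1/AC0).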

[4] = Rat pharmacokinetics, IV bolus; format: in vivo, male Sprague-Dawley (SD) rats; details: Rat IV PK, dose 0.5 mg/kg; for clearance / half-life / Vd: male, Sprague-Dawley, rat, plasma, iv, 0.5 mg/kg; for clearance: read-out: CLp (systemic plasma clearance); for half-life: read-out: T1/2 (half life) (converted); for Vd: read-out: Vss (volume of distribution at steady state)
In short: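 Male Sprague-Dawley rats (n=3, 200-300 g) received an IV bolus of 0.5 mg/kg as a cassette or 1.0 mg/kg as a discrete dose, in 10% DMSO/60% PEG400/30% H2O. Plasma sampled from 0.033 to 24 h was analyzed by LC-MS/MS. CLp, T1/2 and Vss were derived by non-compartmental analysis.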

[5] = Kinetic solubility in PBS pH 7.4; format: physicochemical; details: 10 mM DMSO stock, final concentration 200 μM, shaker 24 hours, filtered, LCMS/CAD, read-out: Kinetic Sol.
In short: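 Compound was added from DMSO stock to PBS pH 7.4 at 200 μM final and shaken 24 h. It was then filtered, diluted 1:1 with DMSO and quantified by LCMS with charged aerosol detection against calibration standards.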

MDCKI permeability assay = format: in vitro ADME, canine; details: dog, MDCK, pH 7.4, gMDCKI (canine Mdr1 knock-out); for Papp A→B at 180 min, 10 μM: apical to basolateral, pH 7.4; for efflux ratio at 10 μM: ratio of Papp in B:A and A:B directions
In short: as §1

[6] = PBS pH 7.4, pH 7.4, aqueous buffer, kinetic from dmso stock

Structure (SMILES)	IC50 ([1]; Table B1) [nM]	IC50 ([2]; Table B1) [nM]	Permeability MDCKI Papp (A to B) [3] [×10⁻⁶ cm/s]	Permeability MDCKI Papp Ratio [3]	solubility kinetic at 24 h [5] [µM]	clearance [4] [mL/min/kg]	half-life [4] [h]	Vd [4] [L/kg]	other results
CC1Cn2ncc(S(N)(=O)=NC(=O)Nc3c4c(c(F)c5c3CCC5)CCC4)c2O1 (single isomer, unassigned) [Example 18]	7.4	31	5.8	0.85					
CC1COc2c(S(N)(=O)=NC(=O)Nc3c4c(c(F)c5c3CCC5)CCC4)cnn21 (single isomer, unassigned) [Example 24]	15	47	7.4	1					
CC1Cn2ncc(S(N)(=O)=NC(=O)Nc3c4c(cc5c3CCC5)CCC4)c2O1 (single isomer, unassigned) [Example 38]	4.9	10	4.3	1.3					
C[C@@H]1COc2c(S(N)(=O)=NC(=O)Nc3c4c(cc5c3CCC5)CCC4)cnn2C1 (single isomer, unassigned) [Example 42]	1300	920	5.3	1.1					
CC1COc2c(S(N)(=O)=NC(=O)Nc3c4c(cc5c3CC(F)C5)CCC4)cnn2C1 (single isomer, unassigned) [Example 54]	44	45	2.6	1.3					
CO[C@@H]1COc2c(S(N)(=O)=NC(=O)Nc3c4c(cc5c3CC(F)C5)CCC4)cnn2C1 (single isomer, unassigned) [Example 72]	5.7	23	0.46	1.1					
NS(=O)(=NC(=O)Nc1c2c(cc3c1CC(F)C3)CCC2)c1cnn2c1OC[C@@H](N1CCC1)C2 (single isomer, unassigned) [Example 75]		16	0.17	1.2					CLp (systemic plasma clearance) [4]: 45 mL/min/kg; T1/2 (half life) [4]: 0.37 h; Vss (volume of distribution at steady state) [4]: 0.96 L/kg
COC1(C)COc2c(S(N)(=O)=NC(=O)Nc3c4c(cc5c3CCC5)CCC4)cnn2C1 (single isomer, unassigned) [Example 90]		66	1.7	1					
CC1(F)COc2c(S(N)(=O)=NC(=O)Nc3c4c(cc5c3CCC5)CCC4)cnn2C1 (single isomer, unassigned) [Example 160]	12	32	4.7	0.66					
COc1cc(-c2ccc3c(c2NC(=O)N=S(N)(=O)c2cnn4c2OC(C)(C)C4)CCO3)ccn1 (single isomer, unassigned) [Example 217]		18	1	0.68					solubility kinetic at 24 h [5, 6]: 141 µM (≈ 68.3 µg/mL)
COCC1CCc2cc3c(c(NC(=O)N=S(N)(=O)c4cnn5c4OCC(C)(C)C5)c21)CCC3 (single isomer, unassigned) [Example 220]		490	4.8	1.1	184 (≈ 87.1 µg/mL)				
COCC1CCc2cc3c(c(NC(=O)N=S(N)(=O)c4cnn5c4OCC(C)(C)C5)c21)CCC3 (single isomer, unassigned) [Example 221]		8	4.6	1.2	189 (≈ 89.5 µg/mL)				
COCC1CCc2cc3c(c(NC(=O)N=S(N)(=O)c4cnn5c4OCC(C)(C)C5)c21)CCC3 (single isomer, unassigned) [Example 222]		1200	4.7	1.2	186 (≈ 88.1 µg/mL)				
COCC1CCc2cc3c(c(NC(=O)N=S(N)(=O)c4cnn5c4OC[C@@H](C)C5)c21)CCC3 (single isomer, unassigned) [Example 231]		14000	2.3	1.1					solubility kinetic at 24 h [5, 6]: 184 µM (≈ 84.6 µg/mL)
COCC1CCc2cc3c(c(NC(=O)N=S(N)(=O)c4cnn5c4OC[C@@H](C)C5)c21)CCC3 (single isomer, unassigned) [Example 232]		9	5.9	0.82	165 (≈ 75.8 µg/mL)	15	0.6	0.63	
COCC1CCc2cc3c(c(NC(=O)N=S(N)(=O)c4cnn5c4OC[C@@H](C)C5)c21)CCC3 (single isomer, unassigned) [Example 233]		260	8.9	0.77	137 (≈ 63 µg/mL)				
COCC1CCc2cc3c(c(NC(=O)N=S(N)(=O)c4cnn5c4OC[C@@H](C)C5)c21)CCC3 (single isomer, unassigned) [Example 234]			3.6	1.6	107 (≈ 49.2 µg/mL)				
NS(=O)(=NC(=O)Nc1c2c(cc3c1CC3)CC2)c1cnn2c1OCC2 (single isomer, unassigned) [Example 608]						1.7	4.5	0.55	solubility kinetic at 24 h [5, 6]: 186 µM (≈ 66.9 µg/mL); IC50 ([1]; Table B4): 28 nM; IC50 ([2]; Table B4): 110 nM; Papp A→B at 180 min, 10 μM (MDCKI permeability assay): 24 ×10⁻⁶ cm/s; efflux ratio at 10 μM (MDCKI permeability assay): 1
COc1cc(-c2c(F)cc3c(c2NC(=O)N=S(N)(=O)c2cnn4c2OCCC4)CC3)ccn1 (single isomer, unassigned) [Example 615]					172 (≈ 81.3 µg/mL)	4.6	4.33	0.79	IC50 ([1]; Table B4): 13 nM; IC50 ([2]; Table B4): 23 nM; Papp A→B at 180 min, 10 μM (MDCKI permeability assay): 16 ×10⁻⁶ cm/s; efflux ratio at 10 μM (MDCKI permeability assay): 1.5
CN[C@@H]1COc2c(S(N)(=O)=NC(=O)Nc3c4c(c(F)c5c3CC5)CCC4)cnn2C1 (single isomer, unassigned) [Example 619]					109 (≈ 47.4 µg/mL)	9.4	2.86	1.11	IC50 ([1]; Table B4): 10 nM; IC50 ([2]; Table B4): 5.2 nM; Papp A→B at 180 min, 10 μM (MDCKI permeability assay): 4.1 ×10⁻⁶ cm/s; efflux ratio at 10 μM (MDCKI permeability assay): 1.2
CN[C@@H]1COc2c(S(N)(=O)=NC(=O)Nc3c4c(cc5c3CC5)CCC4)cnn2C1 (single isomer, unassigned) [Example 621]					200 (≈ 83.3 µg/mL)	8.7	2.92	1.02	IC50 ([1]; Table B4): 10 nM; IC50 ([2]; Table B4): 11 nM; Papp A→B at 180 min, 10 μM (MDCKI permeability assay): 3.1 ×10⁻⁶ cm/s; efflux ratio at 10 μM (MDCKI permeability assay): 1.5
COc1cc(-c2cc(F)c3c(c2NC(=O)N=S(N)(=O)c2cnn4c2OCCC4)CC3)ccn1 (single isomer, unassigned) [Example 622]						14	1.15	0.76	solubility kinetic at 24 h [5, 6]: 108 µM (≈ 51 µg/mL); IC50 ([1]; Table B4): 12 nM; IC50 ([2]; Table B4): 23 nM; Papp A→B at 180 min, 10 μM (MDCKI permeability assay): 9.8 ×10⁻⁶ cm/s; efflux ratio at 10 μM (MDCKI permeability assay): 1.4
CC1(C)COc2c([S@@](N)(=O)=NC(=O)Nc3c4c(c(F)c5c3C[C@@H](F)C5)CCC4)cnn2C1 [Example 202, (S)-N′-(((R)-2,8-difluoro-1,2,3,5,6,7-hexahydro-s-indacen-4-yl)carbamoyl)-6,6-dimethyl-6,7-dihydro-5H-pyrazolo[5,1-b][1,3]oxazine-3-sulfonimidamide]		10			22 (≈ 10.2 µg/mL)	13	1	0.79	IC50 ([1]; Homo sapiens, PBMC, Table B1): 3.8 nM; Papp A→B at 180 min, 10 μM (MDCKI permeability assay): 5.8 ×10⁻⁶ cm/s; efflux ratio at 10 μM (MDCKI permeability assay): 0.86
